Assay results from PubChem BioAssay (NCI).
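Growth conditions: 96-well plates. Treatment: test compound, 48 hours, 5 concentrations. Analysis: linear interpolation between bracketing concentrations; unreached endpoints set to highest concentration. GI50 is the concentration that inhibits growth by half. TGI: concentration producing complete growth inhibition.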

test system: OVCAR-3 ovarian; assay: DTP human tumour cell line panel, 48 h

Row | Structure (SMILES) | TGI [µM]
1 | O=C1c2ccccc2C(=O)C2NC(CCCCCSSCCCCCC3=NC4C(=O)c5ccccc5C(=O)C4N3)=NC12 (stereo not drawn) | > 100

test system: A498 renal; assay: DTP human tumour cell line panel, 48 h

Row | Structure (SMILES) | GI50 [µM] | TGI [µM]
2 | COc1ccc(C(=O)COc2cccc(/C=C3\COc4ccc5ccccc5c4C3=O)c2)cc1 | 12.2 | 87
3 | COc1cc2c(cc1C)NC(=O)/C2=C/c1cccnc1 |  | 24.6
4 | NCCCC[C@@H]1NC(=O)[C@H]2CCCN2C(=O)[C@H](Cc2ccccc2)NC(=O)[C@H](Cc2ccccc2)CNC1=O | > 100 | > 100
5 | O=C1c2ccccc2C(=O)C2NC(CCCCCSSCCCCCC3=NC4C(=O)c5ccccc5C(=O)C4N3)=NC12 (stereo not drawn) |  | > 100
6 | CN(C)CCOc1ccc(/C(=C(/CCCCCCCCCC[P+](c2ccccc2)(c2ccccc2)c2ccccc2)c2ccccc2)c2ccccc2)cc1 | 0.224 | 0.774

test system: SK-MEL-2 melanoma; assay: DTP human tumour cell line panel, 48 h

Row | Structure (SMILES) | GI50 [µM] | TGI [µM]
7 | COc1ccc(C(=O)COc2cccc(/C=C3\COc4ccc5ccccc5c4C3=O)c2)cc1 | 5.83 | > 100
8 | COc1cc2c(cc1C)NC(=O)/C2=C/c1cccnc1 |  | 46.5
9 | NCCCC[C@@H]1NC(=O)[C@H]2CCCN2C(=O)[C@H](Cc2ccccc2)NC(=O)[C@H](Cc2ccccc2)CNC1=O | > 100 | > 100
10 | O=C1c2ccccc2C(=O)C2NC(CCCCCSSCCCCCC3=NC4C(=O)c5ccccc5C(=O)C4N3)=NC12 (stereo not drawn) |  | > 100
11 | CN(C)CCOc1ccc(/C(=C(/CCCCCCCCCC[P+](c2ccccc2)(c2ccccc2)c2ccccc2)c2ccccc2)c2ccccc2)cc1 | 0.28 | 0.864

test system: SW-620 colon; assay: DTP human tumour cell line panel, 48 h

Row | Structure (SMILES) | GI50 [µM] | TGI [µM]
12 | COc1ccc(C(=O)COc2cccc(/C=C3\COc4ccc5ccccc5c4C3=O)c2)cc1 | 3.33 | 13.7
13 | COc1cc2c(cc1C)NC(=O)/C2=C/c1cccnc1 |  | 53.1
14 | NCCCC[C@@H]1NC(=O)[C@H]2CCCN2C(=O)[C@H](Cc2ccccc2)NC(=O)[C@H](Cc2ccccc2)CNC1=O | > 100 | > 100
15 | O=C1c2ccccc2C(=O)C2NC(CCCCCSSCCCCCC3=NC4C(=O)c5ccccc5C(=O)C4N3)=NC12 (stereo not drawn) |  | > 100
16 | CN(C)CCOc1ccc(/C(=C(/CCCCCCCCCC[P+](c2ccccc2)(c2ccccc2)c2ccccc2)c2ccccc2)c2ccccc2)cc1 | 0.28 | 1.32

test system: NCI-H522 lung; assay: DTP human tumour cell line panel, 48 h

Row | Structure (SMILES) | GI50 [µM] | TGI [µM]
17 | COc1ccc(C(=O)COc2cccc(/C=C3\COc4ccc5ccccc5c4C3=O)c2)cc1 | 8.13 | > 100
18 | COc1cc2c(cc1C)NC(=O)/C2=C/c1cccnc1 |  | 33.4
19 | NCCCC[C@@H]1NC(=O)[C@H]2CCCN2C(=O)[C@H](Cc2ccccc2)NC(=O)[C@H](Cc2ccccc2)CNC1=O | > 100 | > 100
20 | O=C1c2ccccc2C(=O)C2NC(CCCCCSSCCCCCC3=NC4C(=O)c5ccccc5C(=O)C4N3)=NC12 (stereo not drawn) |  | > 100

test system: SK-MEL-5 melanoma; assay: DTP human tumour cell line panel, 48 h

Row | Structure (SMILES) | GI50 [µM] | TGI [µM]
21 | COc1ccc(C(=O)COc2cccc(/C=C3\COc4ccc5ccccc5c4C3=O)c2)cc1 | 5.58 | > 100
22 | COc1cc2c(cc1C)NC(=O)/C2=C/c1cccnc1 |  | 25.3
23 | NCCCC[C@@H]1NC(=O)[C@H]2CCCN2C(=O)[C@H](Cc2ccccc2)NC(=O)[C@H](Cc2ccccc2)CNC1=O | > 100 | > 100
24 | O=C1c2ccccc2C(=O)C2NC(CCCCCSSCCCCCC3=NC4C(=O)c5ccccc5C(=O)C4N3)=NC12 (stereo not drawn) |  | > 100

test system: HL-60(TB) leukemia; assay: DTP human tumour cell line panel, 48 h

Row | Structure (SMILES) | GI50 [µM] | TGI [µM]
25 | COc1ccc(C(=O)COc2cccc(/C=C3\COc4ccc5ccccc5c4C3=O)c2)cc1 | 2.07 | 6.83
26 | COc1cc2c(cc1C)NC(=O)/C2=C/c1cccnc1 |  | 26.2
27 | NCCCC[C@@H]1NC(=O)[C@H]2CCCN2C(=O)[C@H](Cc2ccccc2)NC(=O)[C@H](Cc2ccccc2)CNC1=O | > 100 | > 100
28 | O=C1c2ccccc2C(=O)C2NC(CCCCCSSCCCCCC3=NC4C(=O)c5ccccc5C(=O)C4N3)=NC12 (stereo not drawn) |  | > 100
29 | CN(C)CCOc1ccc(/C(=C(/CCCCCCCCCC[P+](c2ccccc2)(c2ccccc2)c2ccccc2)c2ccccc2)c2ccccc2)cc1 | 0.0575 | 0.319

test system: KM12 colon; assay: DTP human tumour cell line panel, 48 h

Row | Structure (SMILES) | GI50 [µM] | TGI [µM]
30 | COc1ccc(C(=O)COc2cccc(/C=C3\COc4ccc5ccccc5c4C3=O)c2)cc1 | 3.11 | 24.6
31 | COc1cc2c(cc1C)NC(=O)/C2=C/c1cccnc1 |  | 29.1
32 | NCCCC[C@@H]1NC(=O)[C@H]2CCCN2C(=O)[C@H](Cc2ccccc2)NC(=O)[C@H](Cc2ccccc2)CNC1=O | > 100 | > 100
33 | O=C1c2ccccc2C(=O)C2NC(CCCCCSSCCCCCC3=NC4C(=O)c5ccccc5C(=O)C4N3)=NC12 (stereo not drawn) |  | > 100

test system: SK-OV-3 ovarian; assay: DTP human tumour cell line panel, 48 h

Row | Structure (SMILES) | GI50 [µM] | TGI [µM]
34 | COc1ccc(C(=O)COc2cccc(/C=C3\COc4ccc5ccccc5c4C3=O)c2)cc1 | 82.2 | > 100
35 | COc1cc2c(cc1C)NC(=O)/C2=C/c1cccnc1 |  | 34.3
36 | NCCCC[C@@H]1NC(=O)[C@H]2CCCN2C(=O)[C@H](Cc2ccccc2)NC(=O)[C@H](Cc2ccccc2)CNC1=O | > 100 | > 100
37 | O=C1c2ccccc2C(=O)C2NC(CCCCCSSCCCCCC3=NC4C(=O)c5ccccc5C(=O)C4N3)=NC12 (stereo not drawn) |  | > 100

test system: IGROV1 ovarian; assay: DTP human tumour cell line panel, 48 h

Row | Structure (SMILES) | GI50 [µM] | TGI [µM]
38 | COc1ccc(C(=O)COc2cccc(/C=C3\COc4ccc5ccccc5c4C3=O)c2)cc1 | 17.4 | > 100
39 | COc1cc2c(cc1C)NC(=O)/C2=C/c1cccnc1 | 19.5 | > 100
40 | NCCCC[C@@H]1NC(=O)[C@H]2CCCN2C(=O)[C@H](Cc2ccccc2)NC(=O)[C@H](Cc2ccccc2)CNC1=O | > 100 | > 100
41 | O=C1c2ccccc2C(=O)C2NC(CCCCCSSCCCCCC3=NC4C(=O)c5ccccc5C(=O)C4N3)=NC12 (stereo not drawn) |  | > 100

test system: HOP-62 NSCLC; assay: DTP human tumour cell line panel, 48 h

Row | Structure (SMILES) | GI50 [µM] | TGI [µM]
42 | COc1ccc(C(=O)COc2cccc(/C=C3\COc4ccc5ccccc5c4C3=O)c2)cc1 | 29.7 | > 100
43 | COc1cc2c(cc1C)NC(=O)/C2=C/c1cccnc1 |  | 30.5
44 | NCCCC[C@@H]1NC(=O)[C@H]2CCCN2C(=O)[C@H](Cc2ccccc2)NC(=O)[C@H](Cc2ccccc2)CNC1=O | > 100 | > 100
45 | O=C1c2ccccc2C(=O)C2NC(CCCCCSSCCCCCC3=NC4C(=O)c5ccccc5C(=O)C4N3)=NC12 (stereo not drawn) |  | > 100

test system: ACHN renal; assay: DTP human tumour cell line panel, 48 h

Row | Structure (SMILES) | GI50 [µM] | TGI [µM]
46 | COc1ccc(C(=O)COc2cccc(/C=C3\COc4ccc5ccccc5c4C3=O)c2)cc1 | 80.7 | > 100
47 | COc1cc2c(cc1C)NC(=O)/C2=C/c1cccnc1 |  | > 56.8
48 | NCCCC[C@@H]1NC(=O)[C@H]2CCCN2C(=O)[C@H](Cc2ccccc2)NC(=O)[C@H](Cc2ccccc2)CNC1=O | > 100 | > 100
49 | O=C1c2ccccc2C(=O)C2NC(CCCCCSSCCCCCC3=NC4C(=O)c5ccccc5C(=O)C4N3)=NC12 (stereo not drawn) |  | > 100
50 | CN(C)CCOc1ccc(/C(=C(/CCCCCCCCCC[P+](c2ccccc2)(c2ccccc2)c2ccccc2)c2ccccc2)c2ccccc2)cc1 | 0.382 | 1.47

test system: HS 578T breast; assay: DTP human tumour cell line panel, 48 h

Row | Structure (SMILES) | GI50 [µM] | TGI [µM]
51 | COc1ccc(C(=O)COc2cccc(/C=C3\COc4ccc5ccccc5c4C3=O)c2)cc1 | 4.93 | > 100
52 | COc1cc2c(cc1C)NC(=O)/C2=C/c1cccnc1 |  | 97.2
53 | NCCCC[C@@H]1NC(=O)[C@H]2CCCN2C(=O)[C@H](Cc2ccccc2)NC(=O)[C@H](Cc2ccccc2)CNC1=O | > 100 | > 100
54 | O=C1c2ccccc2C(=O)C2NC(CCCCCSSCCCCCC3=NC4C(=O)c5ccccc5C(=O)C4N3)=NC12 (stereo not drawn) |  | > 100
55 | CN(C)CCOc1ccc(/C(=C(/CCCCCCCCCC[P+](c2ccccc2)(c2ccccc2)c2ccccc2)c2ccccc2)c2ccccc2)cc1 | 0.318 | 1.79

test system: MDA-MB-231 breast; assay: DTP human tumour cell line panel, 48 h

Row | Structure (SMILES) | GI50 [µM] | TGI [µM]
56 | COc1ccc(C(=O)COc2cccc(/C=C3\COc4ccc5ccccc5c4C3=O)c2)cc1 | 6.97 | > 100
57 | COc1cc2c(cc1C)NC(=O)/C2=C/c1cccnc1 | 9.27 | 27.5
58 | NCCCC[C@@H]1NC(=O)[C@H]2CCCN2C(=O)[C@H](Cc2ccccc2)NC(=O)[C@H](Cc2ccccc2)CNC1=O | > 100 | > 100
59 | O=C1c2ccccc2C(=O)C2NC(CCCCCSSCCCCCC3=NC4C(=O)c5ccccc5C(=O)C4N3)=NC12 (stereo not drawn) |  | > 100
